For eleven molecules, FDI results are on record in ChEMBL document CHEMBL3046245, “Effects of Ginkgo biloba constituents on fruit-infesting behavior of codling moth (Cydia pomonella) in apples” (2011).

Activity calls are given as the source filed them. The rule behind the calls is not given here.

For experiment [1], the system named is Cydia pomonella. As to the kind of experiment: Inhibition of fruit-infesting behavior of Cydia pomonella (codling moth) neonates infested in apple fruit plugs assessed as feeding deterrence index at 0.1 mg/mL. The format is functional.
Experiment [2] concerns Cydia pomonella. As to the kind of experiment: Inhibition of fruit-infesting behavior of Cydia pomonella (codling moth) neonates infested in apple fruit plugs assessed as feeding deterrence index at 30 mg/mL. The format is functional, organism-based.
Experiment [3] concerns Cydia pomonella. Put plainly: Inhibition of fruit-infesting behavior of Cydia pomonella (codling moth) neonates infested in apple fruit plugs assessed as feeding deterrence index at 10 mg/mL. The format is functional.
For experiment [4], the system named is Cydia pomonella. As to the kind of experiment: Inhibition of fruit-infesting behavior of Cydia pomonella (codling moth) neonates infested in apple fruit plugs assessed as feeding deterrence index at 1 mg/mL. Type of experiment: functional.
The test system of experiment [5] is Cydia pomonella. Put plainly: Inhibition of fruit-infesting behavior of Cydia pomonella (codling moth) neonates infested in apple fruit plugs assessed as feeding deterrence index at 3 mg/mL. The format is functional.
The test system of experiment [6] is Cydia pomonella. As to the kind of experiment: Inhibition of fruit-infesting behavior of Cydia pomonella (codling moth) neonates infested in apple fruit plugs assessed as feeding deterrence index at 0.01 mg/mL. The format is functional.
Experiment [7] deals with Cydia pomonella. Put plainly: Inhibition of fruit-infesting behavior of Cydia pomonella (codling moth) neonates infested in apple fruit plugs assessed as feeding deterrence index at 5 mg/mL. Type of experiment: functional.
Experiment [8] deals with Cydia pomonella. Put plainly: Inhibition of fruit-infesting behavior of Cydia pomonella (codling moth) neonates infested in apple fruit plugs assessed as feeding deterrence index at 0.2 mg/mL. Type of experiment: functional.
For experiment [9], the system named is Cydia pomonella. Put plainly: Inhibition of fruit-infesting behavior of Cydia pomonella (codling moth) neonates infested in apple fruit plugs assessed as feeding deterrence index at 0.5 mg/mL. The format is functional.
The test system of experiment [10] is Cydia pomonella. Put plainly: Inhibition of fruit-infesting behavior of Cydia pomonella (codling moth) neonates infested in apple fruit plugs assessed as feeding deterrence index at 2 mg/mL. The format is functional.
Experiment [11] deals with Cydia pomonella. Put plainly: Inhibition of fruit-infesting behavior of Cydia pomonella (codling moth) neonates infested in apple fruit plugs assessed as feeding deterrence index at 0.001 mg/mL. The format is functional.
Experiment [12] has as its system Cydia pomonella. As to the kind of experiment: Inhibition of fruit-infesting behavior of Cydia pomonella (codling moth) neonates infested in apple fruit plugs assessed as feeding deterrence index at 60 mg/mL. Type of experiment: functional, organism-based.

For `O=c1c(O)c(-c2ccc(O)c(O)c2)oc2cc(O)cc(O)c12`, the FDI result in experiment [1], in experiment [2], in experiment [3] and in experiment [4] was “inactive” each time.

For the molecule `C[C@@H]1C(=O)O[C@H]2C[C@@]34[C@H]5C[C@@H](C(C)(C)C)[C@]36[C@@H](OC(=O)[C@@H]6O)O[C@@]4(C(=O)O5)[C@]21O` [GINKGOLIDE A], the FDI is on record as 7.69% in experiment [1], 38.5% in experiment [3] and 40.4% in experiment [4].

For the molecule `C[C@@H]1C(=O)O[C@H]2[C@H](O)[C@@]34[C@H]5C[C@@H](C(C)(C)C)[C@]36[C@@H](OC(=O)[C@@H]6O)O[C@@]4(C(=O)O5)[C@@]12O` [GINKOLIDE B], the FDI is reported as 12.5% in [1], 76% in experiment [3] and 26.1% in experiment [4].

On to `COc1cc(-c2oc3cc(O)cc(O)c3c(=O)c2O)ccc1O` [ISORHAMNETIN], for which the FDI in [1] was determined as 10.3%; in experiment [5], 32.1%; in [6], 21.7%. For the same molecule, in [4], the FDI entry is “inactive”.

Take `CCCCCCCCCCCCCCCc1cccc(O)c1C(=O)O` [ANACARDIC ACID]: the FDI in experiment [7] was 81.8%; in experiment [8], 25%; in experiment [9], 26.7%; in [10], 73.7%; in experiment [4], 91.7%.

Consider `CCCCCC/C=C\CCCCCCCc1cccc(O)c1C(=O)O` [GINGKOLIC ACID], for which the FDI in [7] was 50%; in [3], 63.2%; in [9], 18.8%; in experiment [4] it was 41.7%.

On to `CCCCCCCCCCCCCc1cccc(O)c1C(=O)O` [GINKGOLIC ACID 13:0], for which the FDI in [7] was found to be 0%; in experiment [3], 42.1%; in experiment [9] it was 23.5%; in experiment [4], 26.1%.

As for `CCCCCC/C=C\CCCCCCCCCc1cccc(O)c1C(=O)O` [GINKGOLIC ACID 17:1], the FDI in [7] came to 54.5%; in experiment [3], 60%; in [9], 37.5%; in [4], 5.3%.

In the case of `CC(C)(C)[C@]1(O)CC2OC(=O)CC23C(=O)OC2OC(=O)[C@H](O)C231` (some centres undefined) [BILOBALIDE], the FDI in experiment [1] is recorded as 56.5%; in experiment [6] it was 23.5%; in [11], 0%; in experiment [3] it was 75%; in experiment [4], 50%.

As to `O=c1c(O)c(-c2ccc(O)cc2)oc2cc(O)cc(O)c12` [KAEMPFEROL], the FDI result in experiment [1], in experiment [2], in experiment [12] and in experiment [3] was “inactive” throughout. For the same molecule, in experiment [4], the FDI stood at 25%.

Consider `C[C@@H]1C(=O)O[C@H]2[C@H](O)[C@@]34O[C@@H]5OC(=O)[C@H](O)[C@@]56[C@H](C(C)(C)C)[C@H](O)C(OC3=O)[C@]64[C@@]12O` (some centres undefined) [GINKGOLIDE C], for which the FDI in [1] is 11.8%; in experiment [3] it was 10%; in experiment [4], 20%.
